Reference: ChEMBL document CHEMBL4840325, “Discovery of an Unexpected 1,4-Oxazepine-Linked seco-Fluostatin Heterodimer by Inactivation of the Oxidoreductase-Encoding Gene flsP” (2021)
≈ marks a conversion by molar mass, not a printed value. Calls of active or inactive are those of the source. The rule behind the calls is not given here.

Key:
SF-268 = assay: Cytotoxicity against human SF-268 cells assessed as reduction in cell viability at 0.5 to 16 uM measured after 72 hrs by SRB assay; assay type: functional, cell-based; conditions: dose 0.5-16 µM
MCF7 = assay: Cytotoxicity against human MCF7 cells assessed as reduction in cell viability at 0.5 to 16 uM measured after 72 hrs by SRB assay; assay type: functional, cell-based; conditions: dose 0.5-16 µM
HepG2 = assay: Cytotoxicity against human HepG2 cells assessed as reduction in cell viability at 0.5 to 16 uM measured after 72 hrs by SRB assay; assay type: functional, cell-based; conditions: dose 0.5-16 µM
Candida albicans = assay: Antifungal activity against Candida albicans SC5314 assessed as fungal growth inhibition incubated for 16 to 18 hrs by broth microdilution method; assay type: functional; conditions: time 16-18 hrs

| SMILES | MIC (Candida albicans) [µM] | Activity (SF-268) | Activity (MCF7) | Activity (HepG2) |
| --- | --- | --- | --- | --- |
| C[C@]12O[C@H]1[C@H](n1oc(=O)c3ccccc31)c1c(cc(O)c3c1C(=O)c1cccc(O)c1-3)C2=O | – | inactive | inactive | inactive |
| CC(=O)/C=C/c1c2c(c3c4c1c(O)nn4[C@@H]1c4c(cc(O)c5c4C(=O)c4cccc(O)c4-5)C(=O)[C@](C)(O3)[C@H]1O)-c1c(O)cccc1C2=O | – | inactive | inactive | inactive |
| CCC(C)C(=O)O[C@@H]1c2c(cc(O)c3c2C(=O)c2cccc(O)c2-3)C(=O)C(C)(Cl)[C@H]1O (stereo partly specified) | – | inactive | inactive | inactive |

Continued, in another order:

| MIC (Candida albicans) [µM] | SMILES | Activity (SF-268) | Activity (MCF7) | Activity (HepG2) |
| --- | --- | --- | --- | --- |
| 100 (≈ 44.3 µg/mL) | C[C@]12O[C@H]1[C@H](Nc1ccccc1C(=O)O)c1c(cc(O)c3c1C(=O)c1cccc(O)c1-3)C2=O | inactive | inactive | inactive |
| 100 (≈ 46.1 µg/mL) | CC1(Nc2ccccc2C(=O)O)C(=O)c2cc(O)c3c(c2[C@@H](O)[C@@H]1O)C(=O)c1cccc(O)c1-3 (stereo partly specified) | inactive | inactive | inactive |
| 100 (≈ 37.5 µg/mL) | CO[C@@H]1c2c(cc(O)c3c2C(=O)c2cccc(O)c2-3)C(=O)C(C)(Cl)[C@H]1O (stereo partly specified) | inactive | inactive | inactive |
